Results taken from patent publication US8063059B2, “Use of compositions containing kappa-opioid receptor antagonists for the treatment of dissociative disorders” (Emodys GmbH, priority 2006, dated 2011).

Experiments:
[1] = tested on: patient diagnosed with post traumatic stress disorders; assay: Medical Application Example 1: buprenorphine in a patient with post traumatic stress disorders; format: in vivo, human; conditions: one patient
Procedure: Buprenorphine in the form of a tablet with an active ingredient content of 12 mg was administered sublingually to a patient diagnosed with post traumatic stress disorders with the corresponding psychiatric symptoms.

[2] = tested on: patient diagnosed with emotionally unstable personality disorder; assay: Medical Application Example 3: buprenorphine in patients with emotionally unstable personality disorder; format: in vivo, human
Procedure: In medical application examples 3 and 4 buprenorphine, alone or in conjunction with a kappa-opioid receptor antagonist, is used for patients diagnosed with emotionally unstable personality disorder as a possibility for treating the personality disorder and reducing the associated social, somatic and psychiatric consequences.
Buprenorphine was administered as a mucoadhesive sachet with an active ingredient content of 12 mg to a patient diagnosed with emotionally unstable personality disorder.

[3] = one year following the start of treatment

Substance: 2-(N-cyclopropylmethyl-4,5alpha-epoxy-3-hydroxy-6-methoxy-6,14-endoethanomorphinan-7alpha-yl)-3,3-dimethyl-2-butanol [Buprenorphine]
- flashback symptoms and daily life intrusions [1, 3]: significant improvement
- lethargy and emotional swings, intrusive dissociation sensations (patient-indicated) [1, 3]: clear subjective improvement
- occurrence of flashback situations ([1]; sublingual tablet, daily dosage increased from 12 mg to 16 mg): decrease significantly
- self-injuries after one year ([2]; one patient, daily ingestion of 12 mg, after one year): complete lack of self-injuries
- self-injuring behaviour ([2]; one patient, mucoadhesive sachet, 12 mg): complete remission
- frequency of self-cutting ([2]; two other patients): significant reduction
